Reference: patent US10501805B2, “Methods for determining responsiveness to MEK/ERK inhibitors” (CROWN BIOSCIENCE, INC. (TAICANG), priority 2014, dated 2019)

Legend:
Test in all cases: CellTiter-Glo cell viability, IC50 determination
Assay type in all cases: cell-based
Hela = settings: Homo sapiens, 72 h; Hela cell line; 3-day CTG assay; read-out: Absolute IC50
Summary of the method: (§1)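 Cells were seeded at 4×10^3 cells/well in medium with 10% FBS, left overnight at 37 °C and 5% CO2, then treated in triplicate on Day 0. On Day 3, viability was read by CellTiter-Glo luminescence. Absolute IC50 is where a sigmoidal nonlinear fit crosses 50% surviving rate.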

NCI-H2227 = settings: 72 h; NCI-H2227 cell line; 3-day CTG assay; read-out: Absolute IC50
Summary of the method: as §1

A2058 = settings: Homo sapiens, 72 h; A2058 cell line; 3-day CTG assay; read-out: Absolute IC50
Summary of the method: as §1

NCI-H1703 = settings: Homo sapiens, 72 h; NCI-H1703 cell line; 3-day CTG assay; read-out: Absolute IC50
Summary of the method: as §1

NCI-H1299 = settings: Homo sapiens, 72 h; NCI-H1299 cell line; 3-day CTG assay; read-out: Absolute IC50
Summary of the method: as §1

IC50 (Hela) [µM]	IC50 (NCI-H2227) [µM]	IC50 (NCI-H1703) [µM]	IC50 (NCI-H1299) [µM]	Compound	IC50 (A2058) [µM]
5.38	28.7			O=C(Nc1ccc2[nH]nc(-c3ccncc3)c2c1)[C@@H]1CCN(CC(=O)N2CCN(c3ccc(-c4ncccn4)cc3)CC2)C1 [SCH772984, (R)-1-(2-oxo-2-(4-(4-(pyrimidin-2-yl)phenyl)piperazin-1-yl)ethyl)-N-(3-(pyridin-4-yl)-1H-indazol-5-yl)pyrrolidine-3-carboxamide]	
		15	0.91	CC(=O)Nc1cccc(-n2c(=O)n(C3CC3)c(=O)c3c(Nc4ccc(I)cc4F)n(C)c(=O)c(C)c32)c1 [Trametinib, N-(3-{3-Cyclopropyl-5-[(2-fluoro-4-iodophenyl)amino]-6,8-dimethyl-2,4,7-trioxo-3,4,6,7-tetrahydropyrido[4,3-d]pyrimidin-1(2H)-yl}phenyl)acetamide]	0.12
